Laboratory results from patent US20260216154A1, “POTASSIUM CHANNEL BLOCKERS OR DERIVATIVES THEREOF FOR PREVENTING, ALLEVIATING, AND/OR TREATING MORBIDITY AND MORTALITY INDUCED BY PATHOGENS OR OTHER INDUCERS OF IMMUNE […]/OR EXCESS IMMUNE ACTIVATI” (University of Rochester, priority 2023, published 2026).
“Also recorded” adds a separate entry of the source.

Key:
[1] = system: influenza virus (x31); format: in vivo, mice
[2] = system: non-neurotropic, non-lethal influenza virus (x31 strain); format: in vivo, mice; details: accelerating rod, three consecutive runs

Nc1ccncc1 [4-AP, 4-aminopyridine]
mice surviving until at least Day 14 (survivors/treated) ([1]; […], 4-AP 1.5 mg/kg, corticosteroid 1 mg/kg, N=7/group): 7/7
influenza-induced weight loss (in words) ([1]; mouse, in vivo): lesser weight loss; also recorded: attenuated
survival of infected ATM KO mice (in words) ([1]; mouse, in vivo): complete rescue from death
animals showing a decreased time to fall on the rotarod [2]: 27%
